Test system: PIAS4
Test: PIAS4 protein half-life study (cycloheximide) in MLE cells
Type: cell-based, murine
Conditions: compound 5 μM for 18 h; FIG. 15F
Text: FIG. 9A. PIAS4 protein half-life study in MLE cells transfected with Empty plasmid or Ubiquitin plasmid. FIG. 9B. PIAS4 protein half-life study with MG132 or Leupeptin. FIG. 9C. Immunoblots showing levels of PIAS4 proteins and V5 after ectopic FIEL1 or UBE3B plasmid expression. FIG. 9D. Immunoblots showing levels of FIEL1 proteins after ectopic FIEL1 plasmid expression in MLE, HeLa, and 293T cells. FIG. 9E. Immunoblots showing levels of PIAS4 proteins and V5 after ectopic FIEL1 plasmid expression in HeLa and 293T cells. FIG. 9F. MLE cells were transfected with an inducible control or FIEL1 plasmid under control of exogenous doxycycline. Cells were treated with doxycycline in a dose dependent manner. Cells were then collected and cell lysates were immunoblotted for FIEL1 and PIAS4. FIG. 9G. MRC5 cells were exposed to TGFβ for 24 h before being assayed for PIAS4 and FIEL1 protein half-lives.
FIG. 15A. Diagram of the BC-1485 synthesis process. FIGS. 15B-15C. Docking studies of the lead compound, BC-1485, interacting with the FIEL1-HECT domain. FIG. 15D. MRC5 cells were treated with the compound at various doses; cells were also co-treated with TGFβ at 2 ng/ml. 18 h later, cells were collected and assayed for α-SMA expression. FIG. 15E. MRC5 cells were seeded in 35 mm glass bottom dishes before co-treatment with TGFβ at 2 ng/ml and BC-1480 or BC1485 at 5μM. FIG. 15F. PIAS4 protein half-life determination after BC-1480 or BC1485 treatment at 5μM for 18 h. FIG. 15G. PIAS4 and KIAA0317 mRNA analysis after BC1485 treatment for 18 h.
MLE cells were cultured in Dulbecco's Modified Eagle Medium-F12 (Gibco) supplemented with 10% fetal bovine serum (DMEM-10). 293T cells were cultured in Dulbecco's Modified Eagle Medium (Gibco) supplemented with 10% fetal bovine serum (DMEM-10). MRC5 cells were cultured in Eagle's Minimum Essential Medium (Gibco) supplemented with 10% fetal bovine serum (EMEM-10). For protein expression in MLE cells, nucleofection was used following Amaxa's protocol. For protein overexpression in 293T cells, Fugene6HD transfection reagents were used following the manufacturer's protocol. […]

CC(NC(=O)c1ccc(NS(=O)(=O)c2ccc3[nH]c(=O)[nH]c3c2)cc1)C(=O)N(C)C (stereo not shown) [BC-1485] was tested. Which PIAS4 protein half-life did it give?
The PIAS4 protein half-life was “stabilized PIAS4 by extending its half-life”.

— US10968183B2, “Small molecule FIEL1 inhibitor in inflammatory and fibrotic lung injury” (UNIVERSITY OF PITTSBURGH—OF THE COMMONWEALTH SYSTEM OF …, priority 2015, dated 2021)
